Laboratory results reported in PMC3326631, “Synthesis and biological evaluation of nojirimycin- and pyrrolidine-based trehalase inhibitors” (Beilstein Journal of Organic Chemistry, 2012).
Entries after “also recorded” stand apart in the source; their conditions may differ. Read-outs that look alike come from different tables or passages of the source.

How the values were obtained:
porcine kidney trehalase [1] = target: T1, porcine kidney trehalase (Sus scrofa, UniProt I3LIR5); conditions: mean ± SE, cited from earlier work
T1 construct: trehalases from porcine kidney and insects have different recognition requirements; from tissue; host or cells: porcine kidney
T1 sequence (I3LIR5 24-583): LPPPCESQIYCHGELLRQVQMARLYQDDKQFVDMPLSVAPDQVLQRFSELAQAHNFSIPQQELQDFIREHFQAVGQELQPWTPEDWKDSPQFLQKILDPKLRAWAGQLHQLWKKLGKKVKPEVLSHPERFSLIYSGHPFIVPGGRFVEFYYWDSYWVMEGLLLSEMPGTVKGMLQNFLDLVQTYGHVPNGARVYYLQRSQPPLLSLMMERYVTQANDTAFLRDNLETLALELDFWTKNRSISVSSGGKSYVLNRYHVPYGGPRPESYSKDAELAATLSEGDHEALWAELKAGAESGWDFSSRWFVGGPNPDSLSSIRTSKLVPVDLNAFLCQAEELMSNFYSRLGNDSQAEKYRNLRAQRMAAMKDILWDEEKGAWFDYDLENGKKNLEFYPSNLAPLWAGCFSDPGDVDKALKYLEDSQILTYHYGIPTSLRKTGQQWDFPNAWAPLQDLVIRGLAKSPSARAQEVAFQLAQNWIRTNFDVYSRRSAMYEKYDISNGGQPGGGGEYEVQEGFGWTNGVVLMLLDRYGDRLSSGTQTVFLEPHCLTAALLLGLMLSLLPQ

porcine kidney trehalase [2] = target: T1, porcine kidney trehalase; assay: Trehalase inhibition, coupled assay with glucose-6-phosphate dehydrogenase and hexokinase (porcine enzyme); assay type: biochemical; conditions: for inhibitory activity against porcine trehalase (in words): screening at fixed concentration of 1 mM; for IC50 porcine kidney trehalase / IC50: trehalose fixed close to Km (2.5 mM), 30 °C, mean ± SE of three independent experiments
Protocol: Synthesized compounds 10, 12–14, 16, 17 and 19–21 were tested for their inhibitory activity against insect (C. riparius) and porcine kidney trehalase.
Even if the synthesis unexpectedly afforded a structurally quite heterogeneous set of compounds, biological data give some hints toward the design of selective inhibitors of trehalases of different origin. Trehalase activity was measured through a coupled assay with glucose-6-phosphate dehydrogenase and hexokinase according to Wegener et al.. To examine the potential of each compound as a trehalase inhibitor, screening assays of potential inhibitors were carried out at a fixed concentration of 1 mM. […] Initial rates as a function of inhibitor concentration were fitted to the following equation: […]
(§1) where νi and ν are the initial rate in the presence and in the absence of the inhibitor, respectively, [I] is the inhibitor concentration, IC50 is the inhibitor concentration producing half-maximal inhibition, and n is the Hill coefficient.
(§2) All enzyme assays were performed in triplicate at 30 °C by using sample volumes varying from 5 to 20 µL in 1 mL test tubes and using a Cary3 UV–vis spectrophotometer. Enzyme activities were analyzed by Cary Win UV application software for Windows XP. The specific activity (U mg^−1) was expressed as µmol min^−1(mg protein)^−1. Values were expressed as mean ± SE of replicated.

C. riparius trehalase = C. riparius trehalase (Chironomus riparius, UniProt J7EJ73); assay: Trehalase inhibition, coupled assay with glucose-6-phosphate dehydrogenase and hexokinase (insect enzyme); assay type: biochemical; conditions: for inhibitory activity against insect trehalase (in words): screening at fixed concentration of 1 mM; for IC50 C. riparius trehalase: trehalose fixed close to Km (0.5 mM), 30 °C, mean ± SE of three independent experiments; for selectivity between insect and porcine trehalase (times more active): C. riparius trehalase versus porcine kidney trehalase, from IC50 values
Protocol: Trehalase activity was measured through a coupled assay with glucose-6-phosphate dehydrogenase and hexokinase according to Wegener et al.. To examine the potential of each compound as a trehalase inhibitor, screening assays of potential inhibitors were carried out at a fixed concentration of 1 mM. […] Initial rates as a function of inhibitor concentration were fitted to the following equation: […]
as §1, §2

Sequence of C. riparius trehalase (J7EJ73 entry or part of it): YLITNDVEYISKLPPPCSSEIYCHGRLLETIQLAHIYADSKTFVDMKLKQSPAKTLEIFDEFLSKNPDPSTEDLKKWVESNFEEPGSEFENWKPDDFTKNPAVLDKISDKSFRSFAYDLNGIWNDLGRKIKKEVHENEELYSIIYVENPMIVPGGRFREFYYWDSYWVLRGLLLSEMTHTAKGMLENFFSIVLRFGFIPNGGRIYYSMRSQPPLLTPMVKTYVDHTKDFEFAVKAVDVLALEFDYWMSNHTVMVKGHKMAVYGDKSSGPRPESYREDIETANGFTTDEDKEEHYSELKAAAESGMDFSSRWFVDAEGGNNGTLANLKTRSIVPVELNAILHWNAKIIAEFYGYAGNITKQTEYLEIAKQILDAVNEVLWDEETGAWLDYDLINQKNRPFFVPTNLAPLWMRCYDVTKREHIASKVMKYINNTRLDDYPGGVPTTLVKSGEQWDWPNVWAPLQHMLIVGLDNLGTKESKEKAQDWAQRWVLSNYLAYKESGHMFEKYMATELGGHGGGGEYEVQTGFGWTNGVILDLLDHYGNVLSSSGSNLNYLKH

Row | SMILES | inhibitory activity against porcine trehalase (in words) (porcine kidney trehalase [2]) | IC50 porcine kidney trehalase (porcine kidney trehalase [2]) | inhibitory activity against insect trehalase (in words) (C. riparius trehalase) | selectivity between insect and porcine trehalase (times more active) (C. riparius trehalase) | further results
1 | CC[C@@H]1[C@H](O)[C@@H](O)[C@H](O)[C@@H](CO)N1C(=O)NCc1ccccc1 [Compound 8] | – | – | – | – | IC50 (porcine kidney trehalase [1]; trehalose fixed at Km): 100 ± 8.82 µM
2 | NC(=O)N1C[C@H](O)[C@@H](O)[C@H](O)[C@H]1CO [Compound 12] | active | – | – | five times | IC50 (porcine kidney trehalase [2]): 154 ± 17 µM
3 | CCC[C@H]1N[C@H](CO)[C@@H](O)[C@H](O)[C@H]1O [Compound 13] | active | – | – | around ten times more active towards insect trehalase; also recorded: ten-fold selectivity towards insect trehalase | IC50 (porcine kidney trehalase [2]): 109 ± 38 µM
4 | OC[C@H]1NC[C@H](O)[C@@H](O)[C@@H]1O [Compound 7, 1-deoxynojirimycin, reference compound] | – | – | – | only twice as active on insect trehalase | IC50 (porcine kidney trehalase [1]): 5.96 ± 0.62 µM
5 | CCC[C@@H]1[C@H](O)[C@@H](O)[C@H](O)[C@@H](CO)N1C(=O)NCc1ccccc1 [Compound 10] | no activity | no inhibition | inhibitors only of insect trehalase | – | –
6 | OC[C@H]1NC[C@@H](O)[C@@H]1O [Compound 9, DAB-1, reference compound] | – | – | – | twice more active on porcine trehalase | IC50 (porcine kidney trehalase [1]; trehalose fixed at Km): 10.6 ± 2.42 µM

The next lines start with results.

Row | inhibitory activity against porcine trehalase (in words) (porcine kidney trehalase [2]) | IC50 porcine kidney trehalase (porcine kidney trehalase [2]) | inhibitory activity against insect trehalase (in words) (C. riparius trehalase) | SMILES | selectivity between insect and porcine trehalase (times more active) (C. riparius trehalase) | further results
7 | do not possess any activity | no inhibition | do not possess any activity | CCC[C@@H]1N[C@H](CO)[C@@H](O)[C@H]1O [Compound 17] | – | IC50 C. riparius trehalase (C. riparius trehalase): no inhibition
8 | active | – | – | CCCCCCCCN1C[C@@H](O)[C@H](O)[C@H]1CO [Compound 20] | – | IC50 (porcine kidney trehalase [2]): 537 ± 80 µM
9 | no activity | no inhibition | inhibitors only of insect trehalase | CCC[C@@H]1[C@@H](O)[C@H](O)[C@@H](CO)N1C(N)=O [Compound 16] | – | –
10 | – | no inhibition | – | CCCCCCCC[C@H]1N[C@H](CO)[C@@H](O)[C@@H]1O [Compound 21] | – | IC50 C. riparius trehalase (C. riparius trehalase): no inhibition
11 | no activity | no inhibition | inhibitors only of insect trehalase | CCC[C@H]1N[C@H](CO)[C@@H](O)[C@@H]1O [Compound 14] | – | –
12 | do not possess any activity | no inhibition | do not possess any activity | CCC[C@H]1[C@H](O)[C@H](O)[C@@H](CO)N1C(N)=O [Compound 19] | – | IC50 C. riparius trehalase (C. riparius trehalase): no inhibition
